Measurements published in the supplement of paper PMC8960247.
Where a name gives a salt, the structure may show the parent alone. ± gives the standard error.

Legend:
621-102 (TSC2-deficient) = test: relative viability vs DMSO; higher = less cytotoxic; details: serum: 10% FBS, 72 h
621-103 (TSC2-rescued) = test: as above; details: serum: 10% FBS, 72 h
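Further: immortalized renal angiomyolipoma cells stably carrying empty vector or TSC2, dosed in 384-well plates in DMEM, viability normalized to vehicle-treated wells within each plate.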

SMILES | relative viability (621-102 (TSC2-deficient); 0.0001 µM) | relative viability (621-102 (TSC2-deficient); 0.001 µM) | relative viability (621-102 (TSC2-deficient); 0.01 µM) | relative viability (621-102 (TSC2-deficient); 0.1 µM) | relative viability (621-102 (TSC2-deficient); 1 µM) | relative viability (621-102 (TSC2-deficient); 10 µM) | relative viability (621-103 (TSC2-rescued); 0.0001 µM) | relative viability (621-103 (TSC2-rescued); 0.001 µM) | relative viability (621-103 (TSC2-rescued); 0.01 µM) | relative viability (621-103 (TSC2-rescued); 0.1 µM) | relative viability (621-103 (TSC2-rescued); 1 µM) | relative viability (621-103 (TSC2-rescued); 10 µM)
N=C(N)NC(=N)N1CCOCC1 [Moroxydine] | 109 ± 1.8% | 111 ± 1.4% | 111 ± 4.4% | 107 ± 1.3% | 109.9 ± 0.84% | 99.87 ± 0.55% | 87.36 ± 0.38% | 86.9 ± 5.6% | 96.1 ± 4.8% | 92.5 ± 0.95% | 92.6 ± 2.9% | 86.5 ± 2.3%
CC1(C)CNc2cc(NC(=O)c3cccnc3NCc3ccncc3)ccc21 [Motesanib DiPhosphate] | 104 ± 1.8% | 119 ± 1.9% | 115.2 ± 1.1% | 110 ± 3% | 104 ± 2.7% | 107 ± 2% | 94.7 ± 3.1% | 102.6 ± 0.75% | 102.5 ± 0.75% | 102 ± 1.3% | 93 ± 1.9% | 98 ± 1.7%
FC(F)(F)c1ccc(/C=C/c2nc(COc3ccc(CCCCn4ccnn4)cc3)co2)cc1 [Mubritinib (TAK 165)] | 106 ± 3.2% | 105.09 ± 0.037% | 97.5 ± 1.1% | 103 ± 2.6% | 107 ± 1.2% | 110.2 ± 1.1% | 112 ± 3.3% | 106 ± 2% | 104 ± 2.1% | 112 ± 1.4% | 107 ± 2.1% | 115 ± 1.7%
CC(C)(C)c1[nH]cnc1/C=c1\[nH]c(=O)/c(=C/c2ccccc2)[nH]c1=O [NPI-2358] | 88.4 ± 2.1% | 50.4 ± 2% | 55.9 ± 1.8% | 42 ± 0.5% | 36.5 ± 2% | 41.3 ± 2.3% | 86.9 ± 4.1% | 45.4 ± 0.88% | 62 ± 1.6% | 36.2 ± 0.99% | 32.4 ± 0.92% | 33.1 ± 0.41%
CC(C)(Cc1ccc2ccccc2c1)NC[C@@H](O)COc1cccc(Cl)c1C#N [NPS-2143] | 83.2 ± 5.7% | 93.6 ± 6.1% | 100 ± 2.8% | 97.6 ± 1.3% | 79.52 ± 0.42% | 1 ± 0.14% | 111 ± 4.1% | 102 ± 2.2% | 107 ± 1.8% | 114 ± 2.6% | 106.7 ± 0.6% | 1.29 ± 0.19%
CCNC(=O)c1noc(-c2cc(C(C)C)c(O)cc2O)c1-c1ccc(CN2CCOCC2)cc1 [NVP-AUY922] | 35.4 ± 3.1% | 33 ± 1.4% | 22.2 ± 0.39% | 20.32 ± 0.026% | 23 ± 0.25% | 21.6 ± 1.3% | 17.5 ± 0.57% | 6.795 ± 0.067% | 6.22 ± 0.57% | 5.21 ± 0.31% | 4.92 ± 0.055% | 6.99 ± 0.21%
CCNC(=O)c1cc2c(-c3cc(OCCN4CCCC4)c(Cl)cc3Cl)nc(N)nc2s1 [NVP-BEP800] | 97.39 ± 0.18% | 102 ± 6.3% | 107 ± 5.5% | 102 ± 1.2% | 56.1 ± 4% | 19.3 ± 1.1% | 101 ± 2.1% | 99.72 ± 0.67% | 99.48 ± 0.53% | 107 ± 2% | 43.99 ± 0.26% | 4.6 ± 0.3%
Fc1cc(-c2cccc3ncc(-c4cnn(C5CCNCC5)c4)nc23)cc(F)c1CN1CCOCC1 [NVP-BSK805 dihydrochloride] | 102 ± 3.5% | 99.9 ± 4% | 101 ± 2.5% | 103 ± 1.4% | 89.2 ± 9.6% | 4.33 ± 1.8% | 88.7 ± 5.9% | 102 ± 1.9% | 111 ± 4.3% | 104 ± 4.5% | 77.1 ± 0.88% | 4.07 ± 1.5%
COc1cc(N2CCC(N3CCN(C)CC3)CC2)ccc1Nc1ncc(Cl)c(Nc2ccccc2S(=O)(=O)C(C)C)n1 [NVP-TAE684] | 105.9 ± 0.18% | 105 ± 2.5% | 100.1 ± 0.29% | 97.9 ± 2.6% | 80.8 ± 1.4% | 3.88 ± 1.5% | 98.4 ± 2.6% | 99.6 ± 1.4% | 99.8 ± 2% | 99.27 ± 0.36% | 75.2 ± 3.5% | 1.56 ± 0.21%
COc1ccccc1N1CCN(CC(O)COc2cccc3ccccc23)CC1 (stereo not given) [Naftopidil Dihydrochloride] | 103 ± 5.6% | 109 ± 1.6% | 108.5 ± 0.88% | 106 ± 1.2% | 105.81 ± 0.046% | 110 ± 5% | 110 ± 0.54% | 97.8 ± 11% | 106.7 ± 0.54% | 106 ± 3.4% | 104 ± 1.7% | 108 ± 4.8%
